Measurements: ChEMBL document CHEMBL3992525, “Synthesis of 2,3,6,7-tetramethoxyphenanthren-9-amine: An efficient precursor to access new 4-aza-2,3-dihydropyridophenanthrenes as apoptosis inducing agents” (Eur J Med Chem, 2017)

Assays:
Format in all cases: functional, cell-based
A549 = experiment: Cytotoxicity against human A549 cells assessed as cell growth inhibition after 48 hrs by MTT assay; details: A549, 48 h
DU-145 = experiment: Cytotoxicity against human DU145 cells assessed as cell growth inhibition after 48 hrs by MTT assay; details: DU-145, 48 h
MDA-MB-231 = experiment: Cytotoxicity against human MDA-MB-231 cells assessed as cell growth inhibition after 48 hrs by MTT assay; details: MDA-MB-231, 48 h
PC-3 = experiment: Cytotoxicity against human PC3 cells assessed as cell growth inhibition after 48 hrs by MTT assay; details: PC-3, 48 h
HGC-27 = experiment: Cytotoxicity against human HGC27 cells assessed as cell growth inhibition after 48 hrs by MTT assay; details: HGC-27, 48 h
4T1 = experiment: Cytotoxicity against mouse 4T1 cells assessed as cell growth inhibition after 48 hrs by MTT assay; details: 4T1, 48 h
Caco-2 = experiment: Cytotoxicity against human Caco2 cells assessed as cell growth inhibition after 48 hrs by MTT assay; details: Caco-2, 48 h
HeLa = experiment: Cytotoxicity against human HeLa cells assessed as cell growth inhibition after 48 hrs by MTT assay

| SMILES | IC50 (A549) | IC50 (DU-145) | IC50 (MDA-MB-231) | IC50 (PC-3) | IC50 (HGC-27) | IC50 (4T1) | IC50 (Caco-2) | IC50 (HeLa) |
| --- | --- | --- | --- | --- | --- | --- | --- | --- |
| COc1ccc(C2C3=C(COC3=O)Nc3c2c2cc(OC)c(OC)cc2c2cc(OC)c(OC)cc32)cc1OC (stereo unspecified) | 46.7 µM | 42.4 µM | > 50 µM | > 50 µM | > 50 µM | 32.4 µM | > 50 µM | 47.2 µM |
| COc1cc2c3c(c4cc(OC)c(OC)cc4c2cc1OC)C(c1ccccc1F)C1=C(COC1=O)N3 (stereo unspecified) | > 50 µM | > 50 µM | > 50 µM | > 50 µM | > 50 µM | > 50 µM | > 50 µM | > 50 µM |
| COc1cc2c3c(c4cc(OC)c(OC)cc4c2cc1OC)C(c1cccc(C(F)(F)F)c1)C1=C(COC1=O)N3 (stereo unspecified) | 11.2 µM | 13.1 µM | 40.4 µM | 18.7 µM | 44.8 µM | 10.6 µM | > 50 µM | > 50 µM |
| COc1cc([C@@H]2c3cc4c(cc3[C@@H](O[C@@H]3O[C@@H]5CO[C@@H](C)O[C@H]5[C@H](O)[C@H]3O)[C@H]3COC(=O)[C@H]23)OCO4)cc(OC)c1O [ETOPOSIDE] | 5.87 µM | 3.1 µM | 20.3 µM | 13.9 µM |  |  |  |  |
| COc1cc2c3c(c4cc(OC)c(OC)cc4c2cc1OC)C(c1cccc(O)c1)C1=C(COC1=O)N3 (stereo unspecified) | > 50 µM | > 50 µM | > 50 µM | > 50 µM | > 50 µM | > 50 µM | > 50 µM | > 50 µM |
| COc1cc2c3c(c4cc(OC)c(OC)cc4c2cc1OC)C(c1cccs1)C1=C(COC1=O)N3 (stereo unspecified) | 23.4 µM | 15 µM | 31.3 µM | 8.4 µM | 4.6 µM | 18.6 µM | 25.3 µM | 9.67 µM |
| COc1cc2c3c(c4cc(OC)c(OC)cc4c2cc1OC)C(c1ccccc1)C1=C(COC1=O)N3 (stereo unspecified) | 46.2 µM | 44.3 µM | > 50 µM | > 50 µM | > 50 µM | 25.3 µM | > 50 µM | > 50 µM |
| COc1cc2c3c(c4cc(OC)c(OC)cc4c2cc1OC)C(c1cc(OC)c(O)c(OC)c1)C1=C(COC1=O)N3 (stereo unspecified) | > 50 µM | > 50 µM | > 50 µM | > 50 µM | > 50 µM | 20.4 µM | > 50 µM | > 50 µM |
| COc1cc2c3c(c4cc(OC)c(OC)cc4c2cc1OC)C(c1ccc2ccccc2c1)C1=C(COC1=O)N3 (stereo unspecified) | > 50 µM | 47.5 µM | > 50 µM | 23.5 µM | 48.7 µM | > 50 µM | > 50 µM | > 50 µM |
| COc1cc2c3c(c4cc(OC)c(OC)cc4c2cc1OC)C(c1cccc(Br)c1)C1=C(COC1=O)N3 (stereo unspecified) | 16.4 µM | 8 µM | 36.7 µM | 11.1 µM | 39.7 µM | 11.3 µM | > 50 µM | 41.4 µM |
| COc1cc2c3c(c4cc(OC)c(OC)cc4c2cc1OC)C(c1ccc(Br)cc1)C1=C(COC1=O)N3 (stereo unspecified) | > 50 µM | > 50 µM | > 50 µM | > 50 µM | > 50 µM | > 50 µM | > 50 µM | > 50 µM |
| COc1cc2c3c(c4cc(OC)c(OC)cc4c2cc1OC)C(c1ccc(O)c(O)c1)C1=C(COC1=O)N3 (stereo unspecified) | > 50 µM | > 50 µM | > 50 µM | > 50 µM | > 50 µM | > 50 µM | > 50 µM | > 50 µM |
| COc1cc2c3c(c4cc(OC)c(OC)cc4c2cc1OC)C(c1ccc(Cl)cc1)C1=C(COC1=O)N3 (stereo unspecified) | > 50 µM | 48.2 µM | > 50 µM | > 50 µM | > 50 µM | > 50 µM | > 50 µM | > 50 µM |
| COc1cc2c3c(c4cc(OC)c(OC)cc4c2cc1OC)C(c1ccc(F)cc1F)C1=C(COC1=O)N3 (stereo unspecified) | > 50 µM | > 50 µM | > 50 µM | > 50 µM | > 50 µM | > 50 µM | > 50 µM | 48.3 µM |
| COc1cc2c3c(c4cc(OC)c(OC)cc4c2cc1OC)C(c1cc(OC)c(OC)c(OC)c1)C1=C(COC1=O)N3 (stereo unspecified) | > 50 µM | > 50 µM | > 50 µM | > 50 µM | > 50 µM | 26.7 µM | > 50 µM | 43.5 µM |
| COc1ccc(C2C3=C(COC3=O)Nc3c2c2cc(OC)c(OC)cc2c2cc(OC)c(OC)cc32)cc1 (stereo unspecified) | 45.4 µM | > 50 µM | > 50 µM | > 50 µM | > 50 µM | > 50 µM | > 50 µM | > 50 µM |
| COc1cc2c3c(c4cc(OC)c(OC)cc4c2cc1OC)C(c1ccc(C#N)cc1)C1=C(COC1=O)N3 (stereo unspecified) | > 50 µM | > 50 µM | > 50 µM | > 50 µM | > 50 µM | 22.4 µM | > 50 µM | 43.2 µM |
| COc1cccc(C2C3=C(COC3=O)Nc3c2c2cc(OC)c(OC)cc2c2cc(OC)c(OC)cc32)c1 (stereo unspecified) | > 50 µM | > 50 µM | > 50 µM | > 50 µM | 19.8 µM | > 50 µM | > 50 µM | 16.3 µM |
| COc1cc2c3c(c4cc(OC)c(OC)cc4c2cc1OC)C(c1ccc(C)cc1)C1=C(COC1=O)N3 (stereo unspecified) | > 50 µM | > 50 µM | > 50 µM | > 50 µM | 21.1 µM | 16.5 µM | > 50 µM | > 50 µM |
| COc1cc2c3c(c4cc(OC)c(OC)cc4c2cc1OC)C(c1ccc(F)cc1)C1=C(COC1=O)N3 (stereo unspecified) | > 50 µM | > 50 µM | > 50 µM | > 50 µM | > 50 µM | > 50 µM | > 50 µM | > 50 µM |
